In patent US9730915B2 (OBSCHESTVO S OGRANICHENNOI OTVETSTVENNOSTIYU …, priority 2013, dated 2017):
Values joined by “and” are separate entries in the source; they are usually repeats but may differ in a detail not shown here. Equal entries are not always repeated.

Columns and labels:
IFNAR2 mRNA = test: mRNA synthesis of interferon receptor subunit IFNAR2, Real Time PCR in A-549 cells; format: cell-based; conditions: 100 ng/mL, 16 hours after the treatment (FIG. 1)
Experimental: (§1) A continuous cell line A-549 was treated with glutaryl histamine at a concentration of 100 ng/mL. […] The RNAs were isolated by using RNEASY® Kit (Qiagen). The RNA preparation was treated with DNAase (RNase-free DNaseI (Ambion). Reverse transcription was performed by using THERMOSCRIPT™ RT-PCR System (Invitrogen). Quantitative PCR was carried out with the primers: […]

[1] = Toxic reactions and side effects on administration
protein MxA = test: Cell sensitivity to interferon: MxA protein immunoblot in A-549 cells; format: cell-based; conditions: for synthesis of MxA protein: glutaryl histamine 100 ng/mL plus 1 IU interferon-alpha
Text: Cell lysates were undergone to the procedure of immunoblot analysis (western blotting) by using monoclonal antibodies against to protein MxA (sc-50509, Santa Cruz Biotechnology) to stain membranes by a chemiluminescence method using a substrate (chemiluminescent reagent SUPER SIGNAL® West Femto Chemiluminescent Substrate (Thermo Fisher Scientific)).

IFNAR1 mRNA = test: mRNA synthesis of interferon receptor subunit IFNAR1, Real Time PCR in A-549 cells; format: cell-based; conditions: 100 ng/mL, 16 hours after the treatment (FIG. 1)
Experimental: as §1

[2] = test system: herpes simplex virus HSV-2/VN; test: Murine model of herpes meningoencephalitis, HSV-2/VN; format: in vivo; conditions: mice
Experimental: (§2) Mice were intracerebrally infected with herpes simplex virus HSV-1/CL and HSV-2/VN in a dose of 30 μl comprising 10 LD50.
(§3) A therapeutic effect of glutaryl histamine was studied by once-daily oral administration of 200 μl of the drug to the infected mice at a dose of 30 mg/kg 24, 48, 72, 96, and 120 hours after infection with the virus. Mice of the control group were administered placebo under the same conditions ([…] of a physiological solution). The animals were monitored for 14 days after infection, and fatal cases among mice from herpes meningocephalitis were registered in the treated and control groups. Activity of the drug was evaluated by comparing mortality rates of animals treated with glutaryl histamine relative to animals of the control group. A reduction in the mortality rate of the treated animals relative to the control was expressed in percentage.

IFNAR1 = test: Density of interferon receptor subunit IFNAR1 on the surface of primary human macrophages (antibody staining, optical density); format: cell-based; conditions: primary human macrophages, 0.1, 1.0, 10 or 100 ng/mL, 24 hours (FIG. 2)
Experimental: (§4) A 10-day primary culture of human macrophages in 96-well plates was incubated for 24 hours in the presence of glutaryl histamine at concentrations: 0.1, 1.0, 10 or 100 ng/mL or without it. […] The preparation was visualized by staining with horseradish peroxidase-labeled secondary antibodies and adding a substrate. Optical density was measured using an ELISA spectrophotometer.

IFNAR2 = test: Density of interferon receptor subunit IFNAR2 on the surface of primary human macrophages (antibody staining, optical density); format: cell-based; conditions: primary human macrophages, 0.1, 1.0, 10 or 100 ng/mL, 24 hours (FIG. 2)
Experimental: as §4

[3] = test system: herpes simplex virus HSV-1/CL; test: Murine model of herpes meningoencephalitis, HSV-1/CL; format: in vivo; conditions: mice
Experimental: as §2, §3

In the case of `O=C(O)CCCC(=O)NCCc1c[nH]cn1` [glutaryl histamine], the “increase in the amount of the mRNA of subunit IFNAR2” value (IFNAR2 mRNA) is reported as “three-fold increase”, the “toxic reactions and other side effects” value ([1]; accompanying the therapeutic effect) is reported as “not accompanied by toxic reactions and other side effects” and the adverse side effects ([1]; long-term administration in therapeutic doses or doses greater by an order of magnitude) is reported as “has not demonstrated adverse side effects”. The “synthesis of MxA protein” value (protein MxA; 8 hours (line 5, FIG. 3)) was “increased synthesis”, the “synthesis of MxA protein” value (protein MxA; 24 hours (line 6, FIG. 3)) was “increased synthesis” and the “accumulation of MxA protein” value (protein MxA; glutaryl histamine 100 ng/mL, not treated with interferon (lines 1, 2, 3, FIG. 3)) was “did not cause the accumulation”. For the same molecule, the “increase in the mRNA synthesis of subunit IFNAR1” value (IFNAR1 mRNA) was “at least in a two-folded increase”, the “Life expectancy, days M ± σ” value ([2]; HSV-2, 14 days monitoring, control 6.1 ± 4.3) was 10.2 days and 10.2 ± 4.8 days and the “Protection index, %” value ([2]; HSV-2, reduction in mortality relative to control) was 47.1%. The “Mortality rate, %” value ([2]; HSV-2 intracerebral 10 LD50, oral once daily 24-120 h after infection, 14 days monitoring, control 85.0) was 45%, the “density of IFNAR1 on the cell surface (signal in antibody staining)” value (IFNAR1) was “noticeably increased level of the signal” and the “density of IFNAR2 on the cell surface (signal in antibody staining)” value (IFNAR2) was “noticeably increased level of the signal”. For the same molecule, the “Mortality rate, %” value ([3]; HSV-1 strain CL intracerebral 10 LD50, oral once daily 24-120 h after infection, 14 days monitoring, control 95.0) was 65%, the “Life expectancy, days M ± σ” value ([3]; HSV-1 strain CL, 14 days monitoring, control 4.8 ± 3.1) was 8.1 days and 8.1 ± 4.9 days and the “Protection index, %” value ([3]; HSV-1 strain CL, reduction in mortality relative to control) was 31.6%.
